Test results: patent US20230124862A1, “BISMUTH THIOL COMPOUNDS AND COMPOSITIONS AND METHODS OF TREATING MICROBIAL CO-INFECTIONS” (Microbion Corporation, priority 2020, published 2023)
In brackets after ≈: the same amount, converted by molar mass. Like-named read-outs stand apart in the source and are kept apart here. Marks after values point to notes of the source that are not given here. Each block holds one molecule with its values, some of them ahead of it.

How the values were obtained:
Candida krusei [1] = assay: Antifungal broth microdilution (Example 13); format: cell-based; conditions: C. krusei ATCC 6258, comparators, single value
Aspergillus spp. [2] = assay: Antifungal broth microdilution (Example 13); format: cell-based, A. niger, A. terreus, A. fumigatus, A. flavus
fungal pathogens = assay: Antifungal activity, NIH/NIAID sponsored study; format: cell-based; conditions: 100% endpoint
[3] = system: C. parapsilosis ATCC 22019; assay: Antifungal broth microdilution (Example 13), QC organism; format: cell-based, Candida parapsilosis; conditions: comparators, single value
Candida krusei [4] = conditions: C. krusei ATCC 6258, CLSI established QC range, cited from earlier work
Aspergillus spp. [5] = conditions: cited from earlier work
[6] = system: C. parapsilosis ATCC 22019; conditions: C. parapsilosis ATCC 22019, CLSI established QC range, cited from earlier work
E. coli ATCC 25922 = assay: MIC control strain; conditions: QC organism, Example 13
S. aureus ATCC 29213 [7] = assay: MIC control strain; conditions: QC organism, Example 13
Enterobacteriaceae [8] = assay: Broth microdilution MIC (Example 11); format: cell-based, E. coli, K. pneumoniae, Enterobacter cloacae
Escherichia coli [9] = assay: Broth microdilution MIC (Example 12); format: cell-based
Klebsiella pneumoniae = assay: Broth microdilution MIC (Example 12); format: cell-based
Pseudomonas aeruginosa [10] = assay: Broth microdilution MIC (Example 12); format: cell-based
Acinetobacter baumannii = assay: Broth microdilution MIC (Example 12); format: cell-based
[11] = system: vancomycin-intermediate Staphylococcus aureus (VISA); assay: Broth microdilution MIC (Example 12); format: cell-based
Enterobacteriaceae [12] = conditions: E. coli (MMX 102), QC; cited from earlier work
[13] = system: P. aeruginosa and A. baumannii; conditions: P. aeruginosa (MMX 103), QC; cited from earlier work
Escherichia coli [14] = conditions: E. coli ATCC 25922; CLSI established QC range; cited from earlier work
Pseudomonas aeruginosa [15] = conditions: P. aeruginosa ATCC 27853; CLSI established QC range; cited from earlier work
S. aureus ATCC 29213 [16] = conditions: CLSI established QC range; cited from earlier work
S. aureus ATCC 29213 [17] = assay: Broth microdilution MIC (Example 12), ATCC QC organism; conditions: ATCC QC organism (Table 102)

Structure (SMILES): C[C@@H](c1ncncc1F)[C@](O)(Cn1cncn1)c1ccc(F)cc1F [Voriconazole]
MIC 24 hr (Candida krusei [1]; 24 hr): 0.12 µg/mL (≈ 0.344 µM)
MIC 48 hr (Candida krusei [1]; 48 hr): 0.5 µg/mL (≈ 1.43 µM)
MIC 24 hr (Aspergillus spp. [2]; A. flavus ATCC 204304): 0.12 µg/mL (≈ 0.344 µM)
MIC 48 hr (Aspergillus spp. [2]; A. flavus ATCC 204304): 2 µg/mL (≈ 5.73 µM)
MIC 24 hr (Aspergillus spp. [2]; A. fumigatus ATCC MYA-3626): 0.25 µg/mL (≈ 0.716 µM)
MIC 48 hr (Aspergillus spp. [2]; A. fumigatus ATCC MYA-3626): 0.5 µg/mL (≈ 1.43 µM)
MIC (fungal pathogens; Aspergillus fumigatus, read-out: Antifungal activity, MIC 100%, A. fumigatus AF1): 0.5 µg/mL (≈ 1.43 µM)
MIC (fungal pathogens; Aspergillus fumigatus, read-out: Antifungal activity, MIC 100%, A. fumigatus AF2): 4 µg/mL (≈ 11.5 µM)
MIC (fungal pathogens; Aspergillus fumigatus, read-out: Antifungal activity, MIC 100%, A. fumigatus AF3): 8 µg/mL (≈ 22.9 µM)
MIC (fungal pathogens; Blastomyces dermatitidis, read-out: Antifungal activity, MIC 100%, B. dermatitidis BD1): 0.125 µg/mL (≈ 0.358 µM)
MIC (fungal pathogens; Blastomyces dermatitidis, read-out: Antifungal activity, MIC 100%, B. dermatitidis BD2): ≤ 0.03 µg/mL
MIC (fungal pathogens; Blastomyces dermatitidis, read-out: Antifungal activity, MIC 100%, B. dermatitidis BD3): 0.06 µg/mL (≈ 0.172 µM)
MIC (fungal pathogens; Paecilomyces variotii, read-out: Antifungal activity, MIC 100%, P. variotii CLSI QC): 0.125 µg/mL (≈ 0.358 µM)
MIC 24 hr ([3]; 24 hr): 0.12 µg/mL (≈ 0.344 µM)
MIC 48 hr ([3]; 48 hr): 0.12 µg/mL (≈ 0.344 µM)
QC Range 24 hr (Candida krusei [4]; 24 hr): 0.06-0.5
QC Range 48 hr (Candida krusei [4]; 48 hr): 0.12-1
QC Range 48 hr (Aspergillus spp. [5]; A. flavus ATCC 204304, CLSI established QC range): 0.5-4
QC Range 48 hr (Aspergillus spp. [5]; A. fumigatus ATCC MYA-3626, CLSI established QC range): 0.25-1
QC Range 24 hr ([6]; 24 hr): 0.015-0.12
QC Range 48 hr ([6]; 48 hr): 0.03-0.25
MIC 24 hr (E. coli ATCC 25922): >64
MIC 24 hr (S. aureus ATCC 29213 [7]): >64

MIC (Enterobacteriaceae [8]; E. cloacae (MMX 5981), NDM-1, LVX-R, MEM-R, CAZ-R, GEN-R): 64 µg/mL (≈ 177 µM)
MIC (Enterobacteriaceae [8]; E. coli (MMX 102), QC): 0.015 µg/mL (≈ 0.0415 µM)
MIC (Enterobacteriaceae [8]; E. coli (MMX 5980), NDM-1, LVX-R, MEM-R, CAZ-R, GEN-R): 16 µg/mL (≈ 44.3 µM)
MIC (Enterobacteriaceae [8]; E. coli (MMX 8423), ESBL, LVX-R, CAZ-R, GEN-R): 16 µg/mL (≈ 44.3 µM)
MIC (Enterobacteriaceae [8]; E. coli (MMX 8424), ESBL, CAZ-R): 0.06 µg/mL (≈ 0.166 µM)
MIC (Enterobacteriaceae [8]; E. coli (MMX 8425), ESBL, LVX-R, CAZ-R, GEN-R): 16 µg/mL (≈ 44.3 µM)
MIC (Enterobacteriaceae [8]; K. pneumoniae (MMX 4622), KPC-2, MEM-R, CAZ-R): 1 µg/mL (≈ 2.77 µM)
MIC (Enterobacteriaceae [8]; K. pneumoniae (MMX 4623), KPC-2, MEM-R, CAZ-R, GEN-R): 1 µg/mL (≈ 2.77 µM)
MIC (Enterobacteriaceae [8]; K. pneumoniae (MMX 4653), KPC-3, LVX-R, MEM-R, CAZ-R): 64 µg/mL (≈ 177 µM)
MIC (Enterobacteriaceae [8]; K. pneumoniae (MMX 4683), KPC-2, LVX-R, MEM-R, CAZ-R): >64 µg/mL
MIC (Enterobacteriaceae [8]; K. pneumoniae (MMX 4684), ESBL, MEM-R): 0.03 µg/mL (≈ 0.083 µM)
MIC (Enterobacteriaceae [8]; K. pneumoniae (MMX 4685), ESBL, LVX-R, MEM-R, CAZ-R): 32 µg/mL (≈ 88.6 µM)
MIC (Enterobacteriaceae [8]; K. pneumoniae (MMX 4694), KPC-3, LVX-R, MEM-R, CAZ-R): 64 µg/mL (≈ 177 µM)
MIC (Enterobacteriaceae [8]; K. pneumoniae (MMX 5979), NDM-1, LVX-R, MEM-R, CAZ-R, GEN-R): >64 µg/mL
MIC (Escherichia coli [9]; E. coli ATCC 25922, ATCC QC organism (Table 102)): ≤0.008 µg/mL
MIC (Escherichia coli [9]; E. coli ATCC 35218, ATCC QC organism (Table 102)): ≤0.008 µg/mL
MIC (Escherichia coli [9]; E. coli ATCC 35218, ESBL): ≤0.008 µg/mL
MIC (Escherichia coli [9]; E. coli ATCC BAA-2471, NDM): >8 µg/mL
MIC (Escherichia coli [9]; E. coli CDC 114, ESBL/KPC): 4 µg/mL (≈ 11.1 µM)
MIC (Escherichia coli [9]; E. coli CDC 118, ESBL/NDM): 8 µg/mL (≈ 22.1 µM)
MIC (Escherichia coli [9]; E. coli CDC 435, NDM): >8 µg/mL
MIC (Escherichia coli [9]; E. coli CDC 451, KPC): >8 µg/mL
MIC (Escherichia coli [9]; E. coli CDC 503, ESBL/NDM): >8 µg/mL
MIC (Escherichia coli [9]; E. coli MMX 5745, KPC): 8 µg/mL (≈ 22.1 µM)
MIC (Escherichia coli [9]; E. coli MMX 5755, ESBL): 8 µg/mL (≈ 22.1 µM)
MIC (Escherichia coli [9]; E. coli MMX 5756, ESBL): 4 µg/mL (≈ 11.1 µM)
MIC (Escherichia coli [9]; E. coli MMX 5758, ESBL): 8 µg/mL (≈ 22.1 µM)
MIC (Klebsiella pneumoniae; K. pneumoniae ATCC BAA-1705, ATCC QC organism (Table 102)): >8 µg/mL
MIC (Klebsiella pneumoniae; K. pneumoniae ATCC BAA-1705, ESBL/KPC): >8 µg/mL
MIC (Klebsiella pneumoniae; K. pneumoniae CDC 112, KPC): 4 µg/mL (≈ 11.1 µM)
MIC (Klebsiella pneumoniae; K. pneumoniae CDC 113, ESBL/KPC): 4 µg/mL (≈ 11.1 µM)
MIC (Klebsiella pneumoniae; K. pneumoniae CDC 115, ESBL/KPC): >8 µg/mL
MIC (Klebsiella pneumoniae; K. pneumoniae CDC 120, ESBL/KPC): >8 µg/mL
MIC (Klebsiella pneumoniae; K. pneumoniae CDC 126, ESBL/KPC): 0.015 µg/mL (≈ 0.0415 µM)
MIC (Klebsiella pneumoniae; K. pneumoniae CDC 129, ESBL/KPC): >8 µg/mL
MIC (Klebsiella pneumoniae; K. pneumoniae CDC 135, ESBL/VIM): >8 µg/mL
MIC (Klebsiella pneumoniae; K. pneumoniae CDC 138, ESBL/NDM): >8 µg/mL
MIC (Klebsiella pneumoniae; K. pneumoniae CDC 158, ESBL/NDM/OXA): 4 µg/mL (≈ 11.1 µM)
MIC (Klebsiella pneumoniae; K. pneumoniae MMX 9029, ESBL): 0.12 µg/mL (≈ 0.332 µM)
MIC (Pseudomonas aeruginosa [10]; P. aeruginosa ATCC 27853, ATCC QC organism (Table 102)): 0.5 µg/mL (≈ 1.38 µM)
MIC (Pseudomonas aeruginosa [10]; P. aeruginosa CDC 230, VIM/OXA): 8 µg/mL (≈ 22.1 µM)
MIC (Pseudomonas aeruginosa [10]; P. aeruginosa CDC 231, KPC/OXA): >8 µg/mL
MIC (Pseudomonas aeruginosa [10]; P. aeruginosa CDC 241, IMP/OXA): 8 µg/mL (≈ 22.1 µM)
MIC (Pseudomonas aeruginosa [10]; P. aeruginosa CDC 246, NDM/OXA): >8 µg/mL
MIC (Pseudomonas aeruginosa [10]; P. aeruginosa CDC 250, NDM/OXA): >8 µg/mL
MIC (Pseudomonas aeruginosa [10]; P. aeruginosa CDC 356, KPC): 0.12 µg/mL (≈ 0.332 µM)
MIC (Pseudomonas aeruginosa [10]; P. aeruginosa CDC 439, IMP): 8 µg/mL (≈ 22.1 µM)
MIC (Pseudomonas aeruginosa [10]; P. aeruginosa CDC 444, VIM): 8 µg/mL (≈ 22.1 µM)
MIC (Pseudomonas aeruginosa [10]; P. aeruginosa CDC 457, VIM): >8 µg/mL
MIC (Pseudomonas aeruginosa [10]; P. aeruginosa CDC 516, KPC/AmpC): 0.25 µg/mL (≈ 0.692 µM)
MIC (Pseudomonas aeruginosa [10]; P. aeruginosa CDC 518, KPC/AmpC): >8 µg/mL
MIC (Acinetobacter baumannii; A. baumannii CDC 273, ESBL/OXA): >8 µg/mL
MIC (Acinetobacter baumannii; A. baumannii CDC 274, ESBL/OXA): 8 µg/mL (≈ 22.1 µM)
MIC (Acinetobacter baumannii; A. baumannii CDC 275, ESBL/OXA): 4 µg/mL (≈ 11.1 µM)
MIC (Acinetobacter baumannii; A. baumannii CDC 277, ESBL/OXA): 8 µg/mL (≈ 22.1 µM)
MIC (Acinetobacter baumannii; A. baumannii CDC 284, ESBL/OXA): 8 µg/mL (≈ 22.1 µM)
MIC (Acinetobacter baumannii; A. baumannii CDC 307, OXA): 8 µg/mL (≈ 22.1 µM)
MIC (Acinetobacter baumannii; A. baumannii CDC 308, ESBL/OXA): 4 µg/mL (≈ 11.1 µM)
MIC (Acinetobacter baumannii; A. baumannii CDC 311, OXA): 2 µg/mL (≈ 5.53 µM)
MIC (Acinetobacter baumannii; A. baumannii CDC 312, OXA): 2 µg/mL (≈ 5.53 µM)
MIC (Acinetobacter baumannii; A. baumannii CDC 313, ESBL/OXA): 2 µg/mL (≈ 5.53 µM)
MIC (Acinetobacter baumannii; A. baumannii NCTC 13304, OXA): 1 µg/mL (≈ 2.77 µM)
MIC ([11]; S. aureus NRS 1 (hVISA)): 4 µg/mL (≈ 11.1 µM)
MIC ([11]; S. aureus NRS 2): 4 µg/mL (≈ 11.1 µM)
MIC ([11]; S. aureus NRS 3): >8 µg/mL
MIC ([11]; S. aureus NRS 4): 4 µg/mL (≈ 11.1 µM)
MIC ([11]; S. aureus NRS 13): 0.12 µg/mL (≈ 0.332 µM)
MIC ([11]; S. aureus NRS 18): 4 µg/mL (≈ 11.1 µM)
MIC ([11]; S. aureus NRS 22): 8 µg/mL (≈ 22.1 µM)
MIC ([11]; S. aureus NRS 24 (hVISA)): >8 µg/mL
MIC ([11]; S. aureus NRS 27): 8 µg/mL (≈ 22.1 µM)
MIC (S. aureus ATCC 29213 [17]): 0.06 µg/mL (≈ 0.166 µM)
Structure (SMILES): C[C@H]1COc2c(N3CCN(C)CC3)c(F)cc3c(=O)c(C(=O)O)cn1c23 [LVX]
CLSI Quality Control Range (MIC) (Enterobacteriaceae [12]): (0.008-0.06)^a μg/mL
CLSI Quality Control Range (MIC) [13]: (0.5-4)^a
QC range of MIC (Escherichia coli [14]): (0.008-0.06) μg/mL
QC range of MIC (Pseudomonas aeruginosa [15]): (0.5-4) μg/mL
QC range of MIC (S. aureus ATCC 29213 [16]): (0.06-0.5) μg/mL
